Data set [1] can be described thus: Cytotoxicity against human HCT116 cells assessed as decrease in cell viability after 72 hrs by MTT assay. The data set is classed as functional, cell-based. The following applies: HCT-116, 72 h. A general note: Formazan colour is commonly taken as a measure of viable cells.
The nature of data set [2]: Cytotoxicity against human PBMC assessed as decrease in cell viability after 72 hrs by MTT assay. The following applies: PBMC (peripheral blood mononuclear cells). The data set is classed as toxicity, cell-based.
The nature of data set [3]: Cytotoxicity against human MDA-MB-435 cells assessed as decrease in cell viability after 72 hrs by MTT assay. Conditions: MDA-MB-435, 72 h. The data set is classed as functional, cell-based.
Data set [4] in a line: Cytotoxicity against human PC3 cells assessed as decrease in cell viability after 72 hrs by MTT assay. The data set is classed as functional, cell-based. Conditions: PC-3, 72 h.
The subject of data set [5] is Trypanosoma cruzi. The data set can be described thus: Trypanocidal activity against bloodstream trypomastigote stage of Trypanosoma cruzi Y after 24 hrs by Neubauer chamber method. The data set is classed as functional.
Data set [6] is described as follows: Cytotoxicity against human HL60 cells assessed as decrease in cell viability after 72 hrs by MTT assay. The data set is classed as functional, cell-based. Conditions: HL-60, 72 h.
The nature of data set [7]: Cytotoxicity against human SF295 cells assessed as decrease in cell viability after 72 hrs by MTT assay. The following applies: SF-295, 72 h. The data set is classed as functional, cell-based.
In data set [8] the test system is Trypanosoma cruzi. The data set can be described thus: Trypanocidal activity against bloodstream form of Trypanosoma cruzi after 24 hrs. The data set is classed as functional.
In the next data set the test system is PC-3. The data set can be described thus: Selectivity index, ratio of IC50 for human PBMC to IC50 for human PC3 cells.
A further data set relates to HCT-116. The data set can be described thus: Selectivity index, ratio of IC50 for human PBMC to IC50 for human HCT116 cells.
The next data set has as its system HL-60. The data set can be described thus: Selectivity index, ratio of IC50 for human PBMC to IC50 for human HL60 cells.
Data set [9] in a line: Selectivity index, ratio of IC50 for human PBMC to IC50 for human MDA-MB-435 cells.
The subject of a further data set is SF-295. The data set can be described thus: Selectivity index, ratio of IC50 for human PBMC to IC50 for human SF295 cells.

As usually defined, the IC50 is the concentration at which inhibition is half-maximal.

As for `O=C1C(=O)c2ccccc2C2=C1CC(Cn1nncc1-c1ccccc1)O2` (configuration not stated), the IC50 in data set [1] was 4.84 µM; in data set [3] it was 6.13 µM; in data set [4] it was 6.91 µM; in the data set with Trypanosoma cruzi [5] it was greater than 1000 µM; in data set [6], 4.11 µM; in data set [7] it was 7.78 µM. The IC50 at 72 h in data set [2] was found to be 5.71 µM.

Consider `O=C1C(=O)c2ccccc2C2=C1CC(Cn1cc(C3(O)CCCCC3)nn1)O2` (configuration not stated), for which the half-inhibitory concentration (IC50) in data set [1] turned out to be 12.7 µM; in data set [3] it was 10.2 µM; with Trypanosoma cruzi [8], 89.5 µM; in [4], 12.4 µM; in data set [6], 11 µM; in data set [7], 11.1 µM. In addition, the IC50 at 72 h in [2] was greater than 13.2 µM.

Consider `CC1(C)OC2=C(C(=O)c3ccccc3C2=O)C1n1nncc1-c1ccccc1` (configuration not stated), for which the half-maximal inhibitory concentration (IC50) in [1] was 2.5 µM; in [3], 3.71 µM; in [4], 3.07 µM; in the data set with Trypanosoma cruzi [5], greater than 1000 µM; in data set [6] it was 2.55 µM; in data set [7], 2.8 µM. The IC50 at 72 h in data set [2] was found to be 7.57 µM.

On to `O=C1C2=C(OC(Cn3nncc3-c3ccccc3)C2)C(=O)c2ccccc21` (configuration not stated), for which the IC50 in data set [1] is 3.36 µM; in data set [3], greater than 14 µM; in data set [4], greater than 14 µM; in the data set with Trypanosoma cruzi [5], greater than 1000 µM; in data set [6], 3.02 µM; in data set [7], greater than 14 µM. The half-inhibitory concentration (IC50) at 72 h in data set [2] was greater than 14 µM.

Take `CC1(C)OC2=C(C(=O)C(=O)c3ccccc32)C1n1nncc1-c1ccccc1` (configuration not stated): the IC50 in data set [1] worked out at 1.37 µM; in [3] it was 1.75 µM; in [4], 1.34 µM; in the data set with Trypanosoma cruzi [5] it was 113 µM; in [6], 1.48 µM; in data set [7] it was 2.37 µM. In addition, in data set [2], the concentration for half-maximal inhibition (IC50) at 72 h was 2.02 µM. Besides, in the data set with PC-3, the “Ratio IC50” value was found to be 1.5.

Turning to `CC1(C)CC(n2cc(-c3ccccc3)nn2)C2=C(O1)C(=O)c1ccccc1C2=O` (configuration not stated), the IC50 in data set [1] is 9.63 µM; in data set [3], greater than 13 µM; in [4] it was greater than 13 µM; in the data set on Trypanosoma cruzi [5] it was greater than 1000 µM; in data set [6], 7.94 µM; in data set [7], greater than 13 µM. Moreover, in [2], the IC50 at 72 h was greater than 13 µM.

For the compound `O=C1C2=C(OC(Cn3nnc(-c4ccccc4)c3I)C2)C(=O)c2ccccc21` (configuration not stated), the half-inhibitory concentration (IC50) in data set [1] was 6.04 µM; in data set [3] it was greater than 10.3 µM; in data set [4] it was greater than 10.3 µM; with Trypanosoma cruzi [5] it was greater than 1000 µM; in [6], 5.4 µM; in data set [7], greater than 10.3 µM. For the same compound, the IC50 at 72 h in [2] was greater than 10.3 µM.

Take `O=C1C(=O)c2ccccc2C2=C1CC(Cn1nnc(-c3ccccc3)c1I)O2` (configuration not stated): the half-inhibitory concentration (IC50) in data set [1] was 4.16 µM; in data set [3], 5.65 µM; in data set [4], 2.17 µM; with Trypanosoma cruzi [5] it was greater than 1000 µM; in data set [6], 2.38 µM; in data set [7], 3.68 µM. In addition, the IC50 at 72 h in data set [2] came out at 3.68 µM.

As for `CC1(C)CC(n2nnc(-c3ccccc3)c2I)C2=C(O1)C(=O)c1ccccc1C2=O` (configuration not stated), the IC50 was greater than 9.78 µM in data set [1]; greater than 9.78 µM in data set [3]; greater than 9.78 µM in data set [4]; greater than 1000 µM in the data set on Trypanosoma cruzi [5]; greater than 9.78 µM in data set [6]; greater than 9.78 µM in data set [7]. Moreover, the half-maximal inhibitory concentration (IC50) at 72 h in data set [2] was greater than 9.78 µM.

Consider `O=C1C2=C(OC(Cn3cc(-c4ccccc4)nn3)C2)C(=O)c2ccccc21` (configuration not stated), for which the concentration for half-maximal inhibition (IC50) in data set [1] is 8.7 µM; in data set [3] it was greater than 14 µM; in data set [4], greater than 14 µM; in the data set on Trypanosoma cruzi [5], greater than 1000 µM; in [6], 7.95 µM; in [7], greater than 14 µM. Moreover, the half-maximal inhibitory concentration (IC50) at 72 h in [2] was greater than 14 µM.

On to `O=C1C(=O)c2ccccc2C2=C1CC(Cn1cc(C3CCCCC3)nn1)O2` (configuration not stated), for which the IC50 is 2.17 µM in data set [1]; 1.21 µM in data set [3]; 214 µM in the data set with Trypanosoma cruzi [8]; 2.55 µM in [4]; 2.25 µM in [6]; 1.89 µM in data set [7]. In [2], the concentration for half-maximal inhibition (IC50) at 72 h amounted to 5.17 µM.

As for `O=C1C(=O)c2ccccc2C2=C1CC(Cn1cc(C3=CCCCC3)nn1)O2` (configuration not stated), the IC50 in data set [1] is 3.98 µM; in [3], 2.68 µM; in the data set on Trypanosoma cruzi [8], 55.3 µM; in [4], 4.37 µM; in data set [6], 3.29 µM; in data set [7] it was 2.32 µM. Further, the half-inhibitory concentration (IC50) at 72 h in [2] was found to be 5.31 µM.

With `O=C1C(=O)c2ccccc2C2=C1CC(Cn1nnc(-c3ccccc3)c1-c1ccccc1)O2` (configuration not stated), the 50% inhibitory concentration (IC50) in [1] was 1.68 µM; in data set [3], 1.17 µM; in data set [4], 1.29 µM; in the data set with Trypanosoma cruzi [5] it was greater than 1000 µM; in data set [6], 1.15 µM; in data set [7], 1.43 µM. Also, the IC50 at 72 h in [2] turned out to be 2.16 µM.

Take `CC1(C)OC2=C(C(=O)C(=O)c3ccccc32)[C@H](n2nnc(-c3ccccc3)c2I)[C@H]1Br`: the IC50 in data set [1] was greater than 8.48 µM; in data set [3], greater than 8.48 µM; in [4], greater than 8.48 µM; with Trypanosoma cruzi [5], greater than 1000 µM; in [6] it was greater than 8.48 µM; in [7], greater than 8.48 µM. Moreover, the half-maximal inhibitory concentration (IC50) at 72 h in [2] was greater than 8.48 µM.

As for `CC1(C)CC(n2nncc2-c2ccccc2)C2=C(O1)C(=O)c1ccccc1C2=O` (configuration not stated), the IC50 in data set [1] was greater than 13 µM; in data set [3], greater than 13 µM; in data set [4], greater than 13 µM; in the data set with Trypanosoma cruzi [5], greater than 1000 µM; in data set [6], greater than 13 µM; in data set [7], greater than 13 µM. Further, the half-maximal inhibitory concentration (IC50) at 72 h in [2] was greater than 13 µM.

With `CC1(C)OC2=C(C(=O)c3ccccc3C2=O)C1n1nnc(-c2ccccc2)c1I` (configuration not stated), the IC50 in [1] is 5.17 µM; in [3], 5.69 µM; in [4] it was 5.73 µM; with Trypanosoma cruzi [5], greater than 1000 µM; in [6] it was 4.22 µM; in data set [7] it was 4.58 µM. Further, the IC50 at 72 h in [2] was determined as 7.86 µM.

On to `CCCCCCc1cn(CC2CC3=C(O2)c2ccccc2C(=O)C3=O)nn1` (configuration not stated), for which the IC50 in data set [1] stood at 2.13 µM; in data set [3], 1.91 µM; in the data set with Trypanosoma cruzi [8], 86.7 µM; in data set [4], 3.42 µM; in data set [6] it was 2.02 µM; in data set [7], 2.7 µM. Also, in data set [2], the IC50 at 72 h was 5.99 µM.

Turning to `O=C1C(=O)c2ccccc2C2=C1CC(Cn1cc(-c3ccccc3)nn1)O2` (configuration not stated), the IC50 in data set [1] was 2.4 µM; in [3], 3.08 µM; in data set [4], 2.07 µM; with Trypanosoma cruzi [5] it was greater than 1000 µM; in data set [6], 3.55 µM; in [7], 3.24 µM. For the same compound, the IC50 at 72 h in data set [2] is 3.24 µM.

Take `CC1(C)OC2=C(C(=O)C(=O)c3ccccc32)[C@H](n2nncc2-c2ccccc2)[C@H]1Br`: the “Ratio IC50” value (in the data set on HCT-116; with PC-3; in the data set on HL-60; in data set [9]; with SF-295) was 0.8 - 3 in each case. Further, the IC50 in data set [1] was determined as 0.47 µM; in data set [3] it was 0.77 µM; in [4], 0.41 µM; with Trypanosoma cruzi [5], 125 µM; in data set [6] it was 0.66 µM; in [7], 1.59 µM. For the same compound, the 50% inhibitory concentration (IC50) at 72 h in data set [2] was 1.23 µM.

On to `CC1(C)OC2=C(C(=O)C(=O)c3ccccc32)C1n1nnc(-c2ccccc2)c1I` (configuration not stated), for which the 50% inhibitory concentration (IC50) in data set [1] was 3.35 µM; in data set [3], 3.05 µM; in [4] it was 2.77 µM; in the data set on Trypanosoma cruzi [5], greater than 1000 µM; in data set [6], 2.59 µM; in data set [7], 2.83 µM. In addition, in data set [2], the half-inhibitory concentration (IC50) at 72 h came to 4.08 µM.

Compound `CC1(C)CCC2=C(O1)c1ccccc1C(=O)C2=O` [LAPACHONE] showed an IC50 with Trypanosoma cruzi [5] of 392 µM.

(Values after ChEMBL document CHEMBL3861945 (Medchemcomm, 2016).)
